In the kinase profiling compilation of Christmann-Franck et al. (2016):

Legend:
Experiment in all cases: KINOMEscan competition binding
Conditions in all cases: compound 10.0 µM
[1] = target: STK24 (human) (UniProt Q9Y6E0)
[2] = target: CSNK1E (human) (UniProt P49674)
[3] = target: CDK14 (human) (UniProt O94921)
[4] = target: CDK3 (human) (UniProt Q00526)
[5] = target: STK16 (human) (UniProt O75716)
[6] = target: MYLK4 (human) (UniProt Q86YV6)
[7] = target: MAP3K12 (human) (UniProt Q12852)
[8] = target: AURKA (human) (UniProt O14965)
[9] = target: EPHA7 (human) (UniProt Q15375)
[10] = target: PLK3 (human) (UniProt Q9H4B4)
[11] = target: PTK2B (human) (UniProt Q14289)
[12] = target: JAK1 JH2 pseudokinase (human) (UniProt P23458)
[13] = target: STK36 (human) (UniProt Q9NRP7)
[14] = target: PKN2 (human) (UniProt Q16513)
[15] = target: RIPK1 (human) (UniProt Q13546)
[16] = target: RIOK1 (human) (UniProt Q9BRS2)
[17] = target: PIM3 (human) (UniProt Q86V86)
[18] = target: TAOK1 (human) (UniProt Q7L7X3)
[19] = target: LATS1 (human) (UniProt O95835)
[20] = target: PKN1 (human) (UniProt Q16512)
[21] = target: BLK (human) (UniProt P51451)
[22] = target: RET (human) (UniProt P07949)
[23] = target: HIPK1 (human) (UniProt Q86Z02)
[24] = target: MARK4 (human) (UniProt Q96L34)
[25] = target: TXK (human) (UniProt P42681)
[26] = target: CDK19 (human) (UniProt Q9BWU1)
[27] = target: MAPK7 (human) (UniProt Q13164)
[28] = target: RIPK4 (human) (UniProt P57078)
[29] = target: GSK3B (human) (UniProt P49841)
[30] = target: PTK2 (human) (UniProt Q05397)
[31] = target: MARK1 (human) (UniProt Q9P0L2)
[32] = target: RPS6KA2 KD1 (human) (UniProt Q15349)
[33] = target: SRC (human) (UniProt P12931)
[34] = target: BRSK1 (human) (UniProt Q8TDC3)
[35] = target: FGFR4 (human) (UniProt P22455)
[36] = target: RPS6KA2 KD2 (human) (UniProt Q15349)
[37] = target: CSF1R (human) (UniProt P07333)
[38] = target: STK25 (human) (UniProt O00506)
[39] = target: SYK (human) (UniProt P43405)
[40] = target: PIK3CB (human) (UniProt P42338)

Chain of RPS6KA2 KD1 (human) (Q15349 whole entry, looked up): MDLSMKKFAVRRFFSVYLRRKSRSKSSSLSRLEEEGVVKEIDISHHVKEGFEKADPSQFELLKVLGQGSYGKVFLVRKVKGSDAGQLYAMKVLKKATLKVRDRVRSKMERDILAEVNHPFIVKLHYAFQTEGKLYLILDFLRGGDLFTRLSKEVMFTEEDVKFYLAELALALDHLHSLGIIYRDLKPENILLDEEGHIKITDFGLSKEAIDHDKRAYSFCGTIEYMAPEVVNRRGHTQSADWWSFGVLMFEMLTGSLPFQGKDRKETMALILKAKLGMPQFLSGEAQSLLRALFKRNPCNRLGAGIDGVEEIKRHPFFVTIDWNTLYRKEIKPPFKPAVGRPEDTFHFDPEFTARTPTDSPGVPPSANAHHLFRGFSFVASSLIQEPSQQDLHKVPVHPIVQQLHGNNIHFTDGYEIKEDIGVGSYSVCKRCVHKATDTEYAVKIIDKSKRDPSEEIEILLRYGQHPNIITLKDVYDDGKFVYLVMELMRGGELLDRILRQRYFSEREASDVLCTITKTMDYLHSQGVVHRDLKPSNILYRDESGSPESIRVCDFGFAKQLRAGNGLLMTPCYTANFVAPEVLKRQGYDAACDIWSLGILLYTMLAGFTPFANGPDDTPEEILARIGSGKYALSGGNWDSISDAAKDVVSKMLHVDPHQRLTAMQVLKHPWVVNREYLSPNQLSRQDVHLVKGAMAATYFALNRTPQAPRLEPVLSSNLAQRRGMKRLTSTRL
Chain of RPS6KA2 KD2 (human) (Q15349 whole entry, looked up): as above
Chain of JAK1 JH2 pseudokinase (human) (P23458 whole entry, looked up): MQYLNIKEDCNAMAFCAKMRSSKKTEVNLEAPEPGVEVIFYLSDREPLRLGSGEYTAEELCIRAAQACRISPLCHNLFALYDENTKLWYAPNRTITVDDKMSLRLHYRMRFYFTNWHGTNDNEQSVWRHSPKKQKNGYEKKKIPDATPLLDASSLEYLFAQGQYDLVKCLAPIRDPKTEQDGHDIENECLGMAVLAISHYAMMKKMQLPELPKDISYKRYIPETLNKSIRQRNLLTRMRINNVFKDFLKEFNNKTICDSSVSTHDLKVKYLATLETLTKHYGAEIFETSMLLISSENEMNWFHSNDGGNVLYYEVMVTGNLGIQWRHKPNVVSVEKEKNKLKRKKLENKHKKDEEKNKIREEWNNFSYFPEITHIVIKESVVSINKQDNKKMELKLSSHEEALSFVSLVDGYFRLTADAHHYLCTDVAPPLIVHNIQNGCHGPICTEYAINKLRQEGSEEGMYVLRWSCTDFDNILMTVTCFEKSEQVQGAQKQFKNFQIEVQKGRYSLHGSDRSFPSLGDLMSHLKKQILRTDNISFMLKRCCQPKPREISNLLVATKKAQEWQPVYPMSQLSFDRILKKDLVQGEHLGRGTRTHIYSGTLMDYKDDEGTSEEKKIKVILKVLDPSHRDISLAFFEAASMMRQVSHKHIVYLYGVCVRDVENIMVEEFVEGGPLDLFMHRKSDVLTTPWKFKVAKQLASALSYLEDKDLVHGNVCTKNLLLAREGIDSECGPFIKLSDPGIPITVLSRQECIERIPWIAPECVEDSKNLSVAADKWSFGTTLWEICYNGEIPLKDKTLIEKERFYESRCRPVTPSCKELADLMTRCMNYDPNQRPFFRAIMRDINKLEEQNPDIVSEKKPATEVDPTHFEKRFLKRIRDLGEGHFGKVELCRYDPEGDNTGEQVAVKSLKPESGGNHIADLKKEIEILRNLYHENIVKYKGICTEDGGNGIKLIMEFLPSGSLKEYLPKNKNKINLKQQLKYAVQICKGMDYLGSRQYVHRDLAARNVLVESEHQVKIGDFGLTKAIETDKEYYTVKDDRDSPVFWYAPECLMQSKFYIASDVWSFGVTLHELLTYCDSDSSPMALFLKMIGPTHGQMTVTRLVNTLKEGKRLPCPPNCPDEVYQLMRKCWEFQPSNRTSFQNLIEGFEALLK
Chain of CDK14 (human) (O94921 whole entry, looked up): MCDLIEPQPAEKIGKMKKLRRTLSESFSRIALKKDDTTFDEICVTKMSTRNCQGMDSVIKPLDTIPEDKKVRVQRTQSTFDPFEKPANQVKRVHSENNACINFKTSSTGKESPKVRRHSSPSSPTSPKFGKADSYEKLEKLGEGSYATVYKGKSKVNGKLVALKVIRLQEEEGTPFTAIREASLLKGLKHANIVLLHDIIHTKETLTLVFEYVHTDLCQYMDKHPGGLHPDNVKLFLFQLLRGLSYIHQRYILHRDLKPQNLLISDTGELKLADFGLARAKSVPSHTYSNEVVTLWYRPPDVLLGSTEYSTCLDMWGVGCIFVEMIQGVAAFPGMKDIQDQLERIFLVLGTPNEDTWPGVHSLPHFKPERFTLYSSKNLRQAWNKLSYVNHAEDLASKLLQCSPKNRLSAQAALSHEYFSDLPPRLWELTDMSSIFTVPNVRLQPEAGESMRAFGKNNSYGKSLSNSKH
Chain of GSK3B (human) (P49841 whole entry, looked up): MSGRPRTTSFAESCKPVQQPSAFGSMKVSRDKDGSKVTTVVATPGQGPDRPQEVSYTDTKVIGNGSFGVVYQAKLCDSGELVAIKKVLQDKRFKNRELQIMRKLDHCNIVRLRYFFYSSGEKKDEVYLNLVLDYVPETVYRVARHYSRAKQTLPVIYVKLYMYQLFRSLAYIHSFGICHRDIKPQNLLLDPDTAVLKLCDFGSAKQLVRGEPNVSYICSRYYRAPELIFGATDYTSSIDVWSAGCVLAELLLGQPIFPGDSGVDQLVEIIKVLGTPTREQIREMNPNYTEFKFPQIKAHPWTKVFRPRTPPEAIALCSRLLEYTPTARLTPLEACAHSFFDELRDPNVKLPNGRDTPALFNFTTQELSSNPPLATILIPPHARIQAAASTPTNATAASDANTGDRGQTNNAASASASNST
Chain of STK25 (human) (O00506 whole entry, looked up): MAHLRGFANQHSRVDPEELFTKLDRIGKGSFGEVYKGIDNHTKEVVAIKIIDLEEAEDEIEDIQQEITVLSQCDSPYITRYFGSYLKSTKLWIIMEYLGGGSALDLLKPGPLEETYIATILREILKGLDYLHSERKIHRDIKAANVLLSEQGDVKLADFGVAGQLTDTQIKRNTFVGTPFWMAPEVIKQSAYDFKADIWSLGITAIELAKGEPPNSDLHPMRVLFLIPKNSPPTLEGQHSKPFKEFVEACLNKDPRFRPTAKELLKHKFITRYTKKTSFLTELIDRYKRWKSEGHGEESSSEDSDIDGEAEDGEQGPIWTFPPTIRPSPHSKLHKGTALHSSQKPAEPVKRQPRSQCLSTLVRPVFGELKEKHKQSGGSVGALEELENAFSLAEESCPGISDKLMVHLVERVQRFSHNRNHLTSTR
Chain of CDK3 (human) (Q00526 whole entry, looked up): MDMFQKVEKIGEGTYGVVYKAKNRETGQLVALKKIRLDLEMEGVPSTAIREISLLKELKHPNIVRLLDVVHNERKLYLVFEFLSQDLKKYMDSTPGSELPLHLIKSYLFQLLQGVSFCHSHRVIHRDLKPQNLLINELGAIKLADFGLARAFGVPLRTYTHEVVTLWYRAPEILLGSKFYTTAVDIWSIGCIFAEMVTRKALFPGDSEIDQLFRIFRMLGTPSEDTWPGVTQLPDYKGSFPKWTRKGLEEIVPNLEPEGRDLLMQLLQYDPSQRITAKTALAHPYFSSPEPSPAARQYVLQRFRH
Chain of STK36 (human) (Q9NRP7 whole entry, looked up): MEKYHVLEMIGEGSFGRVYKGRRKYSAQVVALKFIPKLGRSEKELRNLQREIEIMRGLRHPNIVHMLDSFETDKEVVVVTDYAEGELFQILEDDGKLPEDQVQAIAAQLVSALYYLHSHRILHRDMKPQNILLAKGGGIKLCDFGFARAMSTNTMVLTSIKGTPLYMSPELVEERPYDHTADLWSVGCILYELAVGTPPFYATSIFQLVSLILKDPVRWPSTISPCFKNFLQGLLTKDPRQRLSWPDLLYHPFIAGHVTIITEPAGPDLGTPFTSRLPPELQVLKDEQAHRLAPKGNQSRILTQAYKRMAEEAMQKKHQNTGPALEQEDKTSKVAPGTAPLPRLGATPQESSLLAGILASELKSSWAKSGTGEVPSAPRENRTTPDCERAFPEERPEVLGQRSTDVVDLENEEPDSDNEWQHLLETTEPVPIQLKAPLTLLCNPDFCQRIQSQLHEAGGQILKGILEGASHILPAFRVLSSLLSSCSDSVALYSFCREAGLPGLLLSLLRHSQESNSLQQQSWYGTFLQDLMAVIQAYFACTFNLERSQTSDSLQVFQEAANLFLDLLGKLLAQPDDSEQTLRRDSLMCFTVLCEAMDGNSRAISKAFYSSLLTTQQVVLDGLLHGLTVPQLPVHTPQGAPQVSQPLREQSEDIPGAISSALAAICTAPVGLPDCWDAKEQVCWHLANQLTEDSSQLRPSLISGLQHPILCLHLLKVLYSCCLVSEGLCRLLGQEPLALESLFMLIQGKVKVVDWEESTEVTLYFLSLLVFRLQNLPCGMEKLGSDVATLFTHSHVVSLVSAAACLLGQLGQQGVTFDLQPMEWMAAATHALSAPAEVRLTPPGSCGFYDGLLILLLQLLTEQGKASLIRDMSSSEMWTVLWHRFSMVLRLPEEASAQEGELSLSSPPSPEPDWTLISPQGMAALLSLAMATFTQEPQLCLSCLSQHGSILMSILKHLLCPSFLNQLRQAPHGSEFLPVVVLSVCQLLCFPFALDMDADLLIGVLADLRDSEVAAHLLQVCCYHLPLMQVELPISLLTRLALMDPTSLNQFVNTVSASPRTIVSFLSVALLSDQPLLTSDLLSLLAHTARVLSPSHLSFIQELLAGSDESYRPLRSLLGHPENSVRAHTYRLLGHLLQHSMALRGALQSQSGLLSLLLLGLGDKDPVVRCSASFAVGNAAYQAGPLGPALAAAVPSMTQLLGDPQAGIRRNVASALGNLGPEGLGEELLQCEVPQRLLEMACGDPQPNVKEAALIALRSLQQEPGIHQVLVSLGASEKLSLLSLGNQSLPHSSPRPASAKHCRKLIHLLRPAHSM

| Structure (SMILES) | kinase still bound, per cent of control [1] [%] | kinase still bound, per cent of control [2] [%] | kinase still bound, per cent of control [3] [%] | kinase still bound, per cent of control [4] [%] | kinase still bound, per cent of control [5] [%] | kinase still bound, per cent of control [6] [%] | kinase still bound, per cent of control [7] [%] | kinase still bound, per cent of control [8] [%] | kinase still bound, per cent of control [9] [%] | kinase still bound, per cent of control [10] [%] | kinase still bound, per cent of control [11] [%] | kinase still bound, per cent of control [12] [%] | kinase still bound, per cent of control [13] [%] | kinase still bound, per cent of control [14] [%] | kinase still bound, per cent of control [15] [%] | kinase still bound, per cent of control [16] [%] | kinase still bound, per cent of control [17] [%] | kinase still bound, per cent of control [18] [%] | kinase still bound, per cent of control [19] [%] | kinase still bound, per cent of control [20] [%] | also measured |
| --- | --- | --- | --- | --- | --- | --- | --- | --- | --- | --- | --- | --- | --- | --- | --- | --- | --- | --- | --- | --- | --- |
| O=C(NC1CC1)c1cccc(-c2ccc3c(NC(=O)C4CC4)n[nH]c3c2)c1 | 82 | 80 | 46 | 7.2 | 3 | 42 | 30 | 86 | 96 | 100 | 100 | 84 | 88 | 78 | 0.05 | 10 | 70 | 4.5 | 61 | 100 | kinase still bound, per cent of control [21]: 100%; kinase still bound, per cent of control [22]: 86%; kinase still bound, per cent of control [23]: 28%; kinase still bound, per cent of control [24]: 96%; kinase still bound, per cent of control [25]: 77%; kinase still bound, per cent of control [26]: 79%; kinase still bound, per cent of control [27]: 93%; kinase still bound, per cent of control [28]: 84%; kinase still bound, per cent of control [29]: 97%; kinase still bound, per cent of control [30]: 90%; kinase still bound, per cent of control [31]: 96%; kinase still bound, per cent of control [32]: 96%; kinase still bound, per cent of control [33]: 100%; kinase still bound, per cent of control [34]: 64%; kinase still bound, per cent of control [35]: 94%; kinase still bound, per cent of control [36]: 82%; kinase still bound, per cent of control [37]: 70%; kinase still bound, per cent of control [38]: 76%; kinase still bound, per cent of control [39]: 100%; kinase still bound, per cent of control [40]: 100% |
| CN(C)C/C=C/C(=O)Nc1cccc(Nc2ncc3c(n2)N(C)c2ccccc2C(=O)N3C)c1 | 98 | 75 | 100 | 100 | 8.4 | 86 | 38 | 0.65 | 100 | 72 | 74 | 0.25 | 100 | 64 | 28 | 18 | 100 | 0.15 | 100 | 69 | kinase still bound, per cent of control [21]: 0.7%; kinase still bound, per cent of control [22]: 0.15%; kinase still bound, per cent of control [23]: 76%; kinase still bound, per cent of control [24]: 1.5%; kinase still bound, per cent of control [25]: 11%; kinase still bound, per cent of control [26]: 100%; kinase still bound, per cent of control [27]: 0.1%; kinase still bound, per cent of control [28]: 1%; kinase still bound, per cent of control [29]: 82%; kinase still bound, per cent of control [30]: 14%; kinase still bound, per cent of control [31]: 4.3%; kinase still bound, per cent of control [32]: 50%; kinase still bound, per cent of control [33]: 0.7%; kinase still bound, per cent of control [34]: 14%; kinase still bound, per cent of control [35]: 22%; kinase still bound, per cent of control [36]: 21%; kinase still bound, per cent of control [37]: 0.1%; kinase still bound, per cent of control [38]: 66%; kinase still bound, per cent of control [39]: 50%; kinase still bound, per cent of control [40]: 32% |
| CCN1CCN(Cc2ccc(Nc3ncc4c(n3)N(C)c3ccccc3C(=O)N4C)cc2C(F)(F)F)CC1 | 35 | 45 | 100 | 100 | 15 | 99 | 49 | 0.4 | 100 | 100 | 96 | 0.1 | 82 | 55 | 24 | 33 | 84 | 0.2 | 100 | 76 | kinase still bound, per cent of control [21]: 8.3%; kinase still bound, per cent of control [22]: 2.4%; kinase still bound, per cent of control [23]: 78%; kinase still bound, per cent of control [24]: 19%; kinase still bound, per cent of control [25]: 34%; kinase still bound, per cent of control [26]: 95%; kinase still bound, per cent of control [27]: 0.1%; kinase still bound, per cent of control [28]: 12%; kinase still bound, per cent of control [29]: 47%; kinase still bound, per cent of control [30]: 57%; kinase still bound, per cent of control [31]: 21%; kinase still bound, per cent of control [32]: 37%; kinase still bound, per cent of control [33]: 2%; kinase still bound, per cent of control [34]: 41%; kinase still bound, per cent of control [35]: 36%; kinase still bound, per cent of control [36]: 32%; kinase still bound, per cent of control [37]: 0.5%; kinase still bound, per cent of control [38]: 47%; kinase still bound, per cent of control [39]: 78%; kinase still bound, per cent of control [40]: 68% |
